Molecules are shown by their SMILES.

A word on the EC50: it is the concentration giving half of the maximal effect.

The test system of one series is N2a-APP695 cells. Nature of the series: MTS cell viability assay in the same wells as the ELISA. Particulars: MTS assay, N2a-APP695 cells; for Toxicity: class symbol; for Toxicity (concentration in brackets): concentration above which toxic. (In general: Tetrazolium dyes change colour on reduction, which living cells bring about.)
The test system of a further series is Aβ42 production. Nature of the series: Sandwich ELISA measurement of Aβ42 levels in supernatant of treated N2a-APP695 cells. In kind it is cell-based, Mouse. Conditions: N2a-APP695 cells; for EC50: Mus musculus, 18h incubation, ELISA assay, read-out: EC50 (µM) at inducing Aβ42 production. Here is the method: Mouse neuroblastoma cells (N2a cells) or N2a-APP695 cells (N2a cell line stably transfected with APP695, an amyloid precursor protein) were cultured in an essential medium composed of Dulbecco's minimal essential medium (DMEM) and of OptiMEM® (1:1, v/v) (Gibco®) containing 0.2 mg/mL Geniticin (Geneticin® Selective Antibiotic, Gibco®) and 5 % fetal bovine serum (FBS, Gibco®, EU approved origin) in a humidified, 5% CO2 incubator at 37°C. Routinely, cells were split without use of Trypsin every 4/5 days. They were first rinsed with PBS (Gibco) and detached from the plate bottom using 4 mL Versene (Gibco) at room temperature for 3-4 min. 8 mL of fresh medium were added to the cell suspension, and the mix was centrifuged for 3 min at 1,000 rpm. The cell pellet was resuspended in fresh medium before seeding (1/10 dilution) in new flasks.
The N2a-APP695 cells were seeded at 10.000 cells/well in a 96 well plate with modified media (0.5% FBS) and incubated overnight. Cells were treated with fresh media comprising different compounds according to the invention (equal quantity of DMSO sold by Sigma®). They were then incubated for 18h in a humidified, 5% CO2 incubator.
Purines according to the invention were added at various concentrations to N2a-APP695.
The plate was finally centrifuged to remove cell fragments before collecting supernatant samples for amyloids levels determination.
Then, Aβ38, Aβ40 and Aβ42 levels were measured in a sandwich ELISA (Enzyme-Linked ImmunoSorbent Assay) using a combination of monoclonal antibody 6E10 (mAb 6E10) (sold by Covance® under the reference SIG-39320) and biotinylated polyclonal Aβ38, Aβ40 or Aβ42 antibodies (provided by Dr. P.D. Mehta, IBR, Staten Island, USA).
A solution of 100 µl mAb 6E10 diluted in carbonate-bicarbonate buffer, pH 9.6, was coated in the wells of microtiter plates (Maxisorp™ sold by Nunc®) and incubated at 4°C overnight. The plates were then washed with PBST (PBS tablets sold by Gibco®) containing 0.05% Tween-20 (Sigma®), and blocked for 1 h with 1% BSA (Sigma®) in PBST (PBS tablets sold by Gibco®) containing 0.05 Tween-20 (Sigma®) to avoid nonspecific binding.
Following a washing step, samples were added and incubated for 2 hours at room temperature (RT) and then at 4°C overnight. Plates were then washed before incubation with biotinylated polyclonal antibody diluted in PBST (PBS tablets sold by Gibco®) containing 0.05 Tween-20 (Sigma®) + 0.5% BSA at room temperature for 75 minutes.
After a washing step, streptavidin-horseradish peroxidase conjugate (Streptavidin poly-HRP, Thermo Scientific Pierce®), diluted in PBS + 1% BSA, was added and incubation was carried out for 45 min at room temperature. After washing, 100 µl of o-phenylenediamine dihydrochloride (OPD tablets, Invitrogen®) diluted in citrate buffer pH 5.0 were added. The reaction was stopped after 15 min with the addition of 100 µl 1 N sulfuric acid.
A range of known concentrations of Aβ38, Aβ40 and Aβ42, ranging from 0.01 to 10 ng/mL for Aβ38 and Aβ42, and ranging from 0.001 to 10 ng/mL for Aβ40, were use as a reference scale to determine the concentrations of Aβ38, Aβ40 and Aβ42 obtained.
The optical density was finally measured at 490 nm in a microELISA reader (sold by BioTek Instrument, reference E1 800, Gen 5 software).
The EC50 of the molecules tested were thus calculated.
A general note: In an ELISA, binding on a coated surface is turned into a signal by an enzyme label.

As to `CC(C)n1cnc2c(N(C)Cc3ccccc3)nc(N)nc21` [Aftin-1, N6-benzyl-9-isopropyl-N6-methyl-purine-2,6-diamine], in the series with N2a-APP695 cells, the Toxicity entry was “+”. The EC50 with Aβ42 production worked out at 20 µM.
For the compound `CN(Cc1ccccc1)c1nc(N)nc2c1ncn2C1CCCC1` [Aftin-2, N6-Benzyl-9-cyclopentyl-N6-methyl-purine-2,6-diamine], the Toxicity entry in the series with N2a-APP695 cells is “- ("-" means that the tested compound is non toxic with a concentration higher than 100 µM)”. Also, in the series on Aβ42 production, the EC50 came to 11 µM.
For the compound `CC[C@H](CO)Nc1nc(OCc2ccccc2)c2ncn(C(C)C)c2n1` [Aftin-3], in the series on N2a-APP695 cells, the Toxicity result is on record as “- ("-" means that the tested compound is non toxic with a concentration higher than 100 µM)”. In the series with Aβ42 production, the EC50 is 13 µM.
`CC[C@H](CO)Nc1nc(N(C)Cc2ccccc2)c2ncn(C(C)C)c2n1` [Aftin-4, N6-methyl-roscovitine]: in the series on N2a-APP695 cells, the Toxicity entry is recorded as “+” and the “Toxicity (concentration in brackets)” value is reported as > 31 µM. In addition, in the series on Aβ42 production, the EC50 amounted to 10 µM.
Regarding `CN(Cc1ccccc1)c1nc(N)nc2[nH]cnc12` [Compound 1, reference compound], the Toxicity entry in the series with N2a-APP695 cells was “- ("-" means that the tested compound is non toxic with a concentration higher than 100 µM)”. Also, the EC50 in the series with Aβ42 production amounted to 100 µM.
Turning to `CC[C@H](CO)Nc1nc(NCc2ccccc2)c2ncn(C(C)C)c2n1` [Compound 2, reference compound], the Toxicity entry in the series on N2a-APP695 cells is “- ("-" means that the tested compound is non toxic with a concentration higher than 100 µM)”.
For the compound `CC(C)n1cnc2c(N(C)Cc3ccccc3)ncnc21` [Compound 9, N-benzyl-9-isopropyl-N-methyl-purin-6-amine], the Toxicity entry with N2a-APP695 cells is recorded as “- ("-" means that the tested compound is non toxic with a concentration higher than 100 µM)”. Further, the EC50 in the series with Aβ42 production turned out to be 12 µM.
`CN(Cc1ccccc1)c1ncnc2c1ncn2C1CCCC1` [Compound 12]: in the series with N2a-APP695 cells, the Toxicity result is reported as “+” and the “Toxicity (concentration in brackets)” value is on record as > 31 µM. The EC50 in the series on Aβ42 production turned out to be 12 µM.
For `CC[C@H](CO)Nc1nc(N(CC)Cc2ccccc2)c2ncn(C(C)C)c2n1` [Compound 13] the same measures were “+”, > 31 µM and 3.8 µM.
On to `CC[C@H](CO)Nc1nc(N(C)Cc2ccccc2)c2ncn(C3CCCC3)c2n1` [Compound 14], for which, in the series on N2a-APP695 cells, the Toxicity entry is “+” and the “Toxicity (concentration in brackets)” value is listed as > 20 µM. The EC50 in the series on Aβ42 production was 2.7 µM.
`CCN(Cc1ccccc1)c1nc(N[C@@H](CO)C(C)C)nc2c1ncn2C1CCCC1` [Compound 15]: the Toxicity entry in the series on N2a-APP695 cells was “+”. For the same compound, the concentration for a half-maximal effect (EC50) with Aβ42 production turned out to be 0.5 µM.
With `CC[C@H](CO)Nc1nc(N(C)Cc2ccc(-c3ccccn3)cc2)c2ncn(C(C)C)c2n1` [Compound 16], in the series with N2a-APP695 cells, the Toxicity result is reported as “+” and the “Toxicity (concentration in brackets)” value is recorded as > 31 µM. Moreover, the EC50 in the series with Aβ42 production is 3.2 µM.
As to `CC[C@H](CO)Nc1nc(N(C)Cc2ccccc2)c2ncn(Cc3ccccc3)c2n1` [Compound 17], in the series on N2a-APP695 cells, the Toxicity entry is reported as “+” and the “Toxicity (concentration in brackets)” value is given as > 12 µM. Also, in the series with Aβ42 production, the EC50 amounted to 0.7 µM.
Turning to `CC[C@H](CO)Nc1nc(N(CC)Cc2ccccc2)c2ncn(Cc3ccccc3)c2n1` [Compound 18], in the series on N2a-APP695 cells, the Toxicity entry was “+” and the “Toxicity (concentration in brackets)” value is > 12 µM. Moreover, the EC50 in the series on Aβ42 production came to 1.3 µM.
With `CC[C@H](CO)Nc1nc(N2CCc3ccccc32)c2ncn(C(C)C)c2n1` [Compound 19], in the series on N2a-APP695 cells, the Toxicity result is “+” and the “Toxicity (concentration in brackets)” value is reported as > 31 µM. In addition, in the series on Aβ42 production, the EC50 is 8 µM.
Turning to `CCCN(Cc1ccccc1)c1nc(N[C@H](CC)CO)nc2c1ncn2C(C)C` [Compound 20], in the series on N2a-APP695 cells, the Toxicity result was “+” and the “Toxicity (concentration in brackets)” value is given as > 12 µM. In the series with Aβ42 production, the EC50 turned out to be 1.35 µM.
In the case of `CC[C@H](CO)Nc1nc(N(C)Cc2ccc(-c3ccccc3)cc2)c2ncn(C(C)C)c2n1` [Compound 21], in the series on N2a-APP695 cells, the Toxicity result was “+”. For the same compound, the EC50 in the series on Aβ42 production worked out at 0.45 µM.
Regarding `CCN(CC)CCNc1nc(N(CC)Cc2ccccc2)c2ncn(C3CCCC3)c2n1` [Compound 22], in the series with N2a-APP695 cells, the Toxicity result was “+” and the “Toxicity (concentration in brackets)” value is listed as > 12 µM. Besides, the EC50 in the series on Aβ42 production amounted to 0.8 µM.
For `CC[C@H](CO)Nc1nc(N(Cc2ccccc2)C(C)C)c2ncn(C(C)C)c2n1` [Compound 23, (2R)-2-[[6-[benzyl(isopropyl)amino]-9-isopropylpurin-2-yl]amino]butan-1-ol] the same measures were “+”, > 12 µM and 2.5 µM.
Regarding `CC[C@H](CO)Nc1nc(N2CCc3ccccc3C2)c2ncn(C(C)C)c2n1` [Compound 24], in the series on N2a-APP695 cells, the Toxicity result is on record as “+” and the “Toxicity (concentration in brackets)” value is > 31 µM. In addition, the EC50 in the series with Aβ42 production came out at 3.5 µM.
For `CC[C@@H](CO)Nc1nc(N(C)c2ccccc2)c2ncn(C(C)C)c2n1` [Compound 26], the Toxicity result with N2a-APP695 cells is recorded as “- ("-" means that the tested compound is non toxic with a concentration higher than 100 µM)”. For the same compound, the EC50 in the series on Aβ42 production was determined as 17 µM.
Take `CC[C@@H](CO)Nc1nc(N(C)Cc2ccc(-c3ccccn3)cc2)c2ncn(C(C)C)c2n1` [Compound 28]: in the series on N2a-APP695 cells, the Toxicity result is reported as “+” and the “Toxicity (concentration in brackets)” value was > 12 µM. In the series on Aβ42 production, the EC50 is 2.8 µM.
For the compound `CC(C)n1cnc2c(N(C)Cc3ccc(-c4ccccn4)cc3)nc(NC[C@H](O)CO)nc21` [Compound 29], in the series on N2a-APP695 cells, the Toxicity result is listed as “- ("-" means that the tested compound is non toxic with a concentration higher than 100 µM)”. For the same compound, the EC50 in the series on Aβ42 production was 10 µM.
For `CC[C@H](CO)Nc1nc(N(C)Cc2ccc(C(=O)NCCOCCOCCOCCOCCOCCN)cc2)c2ncn(C(C)C)c2n1` [Compound 30] the same measures were “- ("-" means that the tested compound is non toxic with a concentration higher than 100 µM)” and > 100 µM.
On to `CC[C@@H](CO)Nc1nc(OCc2ccccc2)c2ncn(C(C)C)c2n1` [Compound 32], for which the Toxicity result in the series with N2a-APP695 cells is “- ("-" means that the tested compound is non toxic with a concentration higher than 100 µM)”. In the series on Aβ42 production, the EC50 is 21 µM.
As to `CC(C)n1cnc2c(N(C)Cc3ccc(F)cc3)nc(NC3CCNCC3)nc21` [Compound 33], in the series with N2a-APP695 cells, the Toxicity result was “+” and the “Toxicity (concentration in brackets)” value is > 12 µM. In the series on Aβ42 production, the EC50 was 10 µM. Besides, the “fold (printed in the EC50 cell)” value with Aβ42 production (Aβ42 production) turned out to be 2 fold.
As for `CCC(CO)Nc1nc(N(C)c2ccc(F)cc2)c2ncn(C(C)C)c2n1` (stereo not drawn) [Compound 34], in the series on N2a-APP695 cells, the Toxicity result is given as “- ("-" means that the tested compound is non toxic with a concentration higher than 100 µM)”. For the same compound, the EC50 in the series on Aβ42 production was 30 µM.
Regarding `CC[C@H](CO)Nc1nc(N(C)Cc2cccc(OC)c2)c2ncn(C(C)C)c2n1` [Compound 36], in the series on N2a-APP695 cells, the Toxicity entry is “+” and the “Toxicity (concentration in brackets)” value was > 100 µM. Also, the EC50 in the series with Aβ42 production turned out to be 105 µM.
As for `CC[C@@H](CO)Nc1nc(N(C)Cc2ccc(F)cc2)c2ncn(C(C)C)c2n1` [Compound 37], in the series on N2a-APP695 cells, the Toxicity entry is given as “+” and the “Toxicity (concentration in brackets)” value is > 12 µM. Moreover, the EC50 in the series on Aβ42 production amounted to 52 µM.
Regarding `CC[C@H](CO)Nc1nc(N(C)Cc2ccc(F)cc2)c2ncn(C(C)C)c2n1` [Compound 38], in the series with N2a-APP695 cells, the Toxicity result is recorded as “+” and the “Toxicity (concentration in brackets)” value is on record as > 12 µM. For the same compound, in the series with Aβ42 production, the EC50 is 55 µM.
Regarding `CC(C)n1cnc2c(N(C)c3ccccc3)nc(N(CCO)CCO)nc21` [Compound 39], in the series on Aβ42 production, the EC50 is > 150 µM.

For the origin of these results see EP2664619B1, “Purine derivatives as tools for screening anti-Alzheimer compounds” (Manros Therapeutics, priority 2012, dated 2013).
